Test results taken from patent US4897390A, “Novel anti-obesity compounds and method of use” (priority 1987, dated 1990).

What was measured:
[1] = test system: thyroid stimulating hormone and thyroxine; settings: cited from earlier work
[2] = DHEA treatment in mice; cited from earlier work
[3] = cited from earlier work
[4] = test system: fatty acid synthetase; settings: prolonged treatment; mice with excessive levels of this enzyme; cited from earlier work
[5] = test system: uterine weight of the immature mouse; assay: Estrogenic effect: uterine weight of the immature mouse; assay type: in vivo, C57-WH mice
Procedure: Immature female C57-WH mice were maintained at 25° C. at 12 hours light/12 hours dark (lights on at 0800 h and off at 2000 h). Purina Lab Chow and water were available ad libitum. The control and each experimental group of animals consisted of six mice. Treatment began after an acclimation period of five days. Beginning at 27 days of age and continuing for three consecutive days, the mice were orally intubated with DHEA or β-MET suspended in sesame oil. The control mice received only sesame oil. Between 1400-1600 h on day 30, all animals were sacrificed by an overdose of ether. Uteri were removed, cleaned of adventitious tissue, and weighed to the nearest 0.5 mg.
All reported results are expressed as the mean plus or minus the standard error (mean±SE).

[6] = test system: NADH oxidase; settings: cited from earlier work
[7] = test system: glucose-6-phosphate dehydrogenase (G6PD); settings: cited from earlier work
[8] = test system: 11β-hydroxylase; settings: cited from earlier work
[9] = test system: fatty acid synthetase; settings: cited from earlier work
[10] = cited from earlier work; for deactivation and excretion from general circulation: once excreted from cells to the general circulation; for conjugation in blood stream: when excreted by individual cells to the blood stream
[11] = test system: obesity; settings: known; cited from earlier work
[12] = Short-term (thirty day) treatment with large doses in mice; assay type: in vivo, C57-WH mice
Procedure: Five male and five female C57-WH mice (age: ~11 weeks, weight: ~15 g each) each received 200 mg/kg of β-MET, suspended in sesame oil, by p.o. intubation every second day for a period of thirty days. Another group of ten matched controls received only the sesame oil. […] Abnormalities such as hypertrophic lymph nodes, diarrhea, bloody stools, or loss of hair luster were not seen.

[13] = test system: Salmonella typhimurium; settings: alone and with liver homogenate fraction from rat treated with polychlorinated biphenyl
Procedure: β-MET was tested for mutagenicity by administration to a his^- auxotrophic mutant of Salmonella typhimurium.β-MET was administered alone and with a liver homogenate fraction from a rat that had been treated with polychlorinated biphenyl.

[14] = Cumulative food consumption of C57-WH mice treated with β-MET for 14 weeks; assay type: in vivo
Procedure: (§1) Forty C57-WH mice were maintained five per cage in a temperature-controlledroom (25° C.) with 12-h light/day (7:00 A.M. to 7:00 P.M.). All mice were at ten weeks of age when the experiment was begun.
(§2) The mice were divided into four groups: β-MET-treated female; control female; β-MET-treated male; and control male (for each group, n=10). All β-MET-treated animals received 0.07 mg (~4.6 mg/kg) of the β-MET administered as a suspension in sesame oil by PO intubation three times weekly. The control animals received only sesame oil. The mice were treated for a period of 14 weeks with access to Purina Laboratory chow and water ad libitum. Body weights were recorded weekly, and food consumption was determined by subtracting the food remaining from the food supplied at the beginning of each week.
(§3) Student's t-test was used in all statistical analyses of the data. Data are presented as means ±SD from the four groups of mice. Differences were considered significant at p<0.01.

[15] = Body weight of C57-WH mice treated with β-MET for 14 weeks; assay type: in vivo; settings: for mean weight after 14 weeks: 0.07 mg (~4.6 mg/kg) PO three times weekly, n=10; for significance of difference in mean weights versus control: significant at p<0.01
Procedure: as §1, §2, §3

[16] = Acute oral toxicity in mice (LD50); assay type: in vivo, C57-WH mice
Procedure: The LD50 of β-MET administered orally in mice could not be accurately determined. However, five male and five female C57-WH mice, each weighing approximately 15 g, received 200 mg of β-MET, suspended in sesame oil, by p.o. intubation.

[17] = test system: obesity; assay: Anti-obesity efficacy in various mammalian systems (general statement); assay type: in vivo
[18] = 200 mg/kg p.o. every second day for thirty days

Q: Which results are given for `C[C@]12CC[C@H](O)CC1=CC[C@@H]1[C@@H]2CC[C@]2(C)C(=O)CC[C@@H]12` [DHEA, dehydroepiandrosterone]?
A: thyroid follicle epithelium ([1]; rat studies): hypertrophy of the thyroid follicle epithelium; levels of thyroid stimulating hormone and thyroxine in the blood ([1]; rat, in vivo): known to increase levels of thyroid stimulating hormone and thyroxine in the blood; lipogenesis and fat cell size [2]: decreases in lipogenesis and fat cell size; toxicity in humans ([3]; in vivo): relatively low toxicity in humans; estrogenic and androgenic effects ([3]; long-term administration, humans): Estrogenic and androgenic effects; liver and adipose tissue fatty acid synthetase activity [4]: decrease liver and adipose tissue fatty acid synthetase activity; Uterine weight ([5]; daily dose 400.0 mg/kg, oral, three consecutive days from day 27, mean±SE, control 58.0 ± 3): 257.0 ± 5 mg/100 g body weight; inhibition of NADH oxidase [6]: known inhibitor of NADH oxidase; inhibition of mammalian G6PD [7]: known to inhibit mammalian glucose-6-phosphate dehydrogenase; inhibition of 11β-hydroxylase [8]: known to inhibit 11β-hydroxylase; inhibition of fatty acid synthetase [9]: known to directly inhibit fatty acid synthetase

Q: With `C[C@]12CC[C@@H](O)C[C@H]1CC[C@@H]1[C@@H]2CC[C@]2(C)C(=O)CC[C@@H]12` [α-HET, 3α-hydroxyetiocholanone] as the compound, how does the “deactivation and excretion from general circulation” value [10] read?
A: Its value is “rapidly deactivated and excreted from the body”.

Q: And the “conjugation in blood stream” value [10]?
A: The value was “conjugated to glucuronic acid at the 3-hydroxy position”.

Q: What about the “anti-obesity effects attributed to DHEA” value [11] of the same compound?
A: Its value is “known to accomplish the anti-obesity effects attributed to DHEA”.

Q: What does the source list for `C[C@]12CC[C@H](O)C[C@H]1CC[C@@H]1[C@@H]2CC[C@]2(C)C(=O)CC[C@@H]12` [β-HET, 5-β-androstan-3-β-ol-17-one]?
A: deactivation and excretion from general circulation [10]: rapidly deactivated and excreted from the body; conjugation in blood stream [10]: conjugated to glucuronic acid at the 3-hydroxy position; anti-obesity effects attributed to DHEA [11]: known to accomplish the anti-obesity effects attributed to DHEA

Q: What does the source list for `C[C@H]1CC[C@@]2(C)[C@H](CC[C@@H]3[C@@H]2CC[C@]2(C)C(=O)CC[C@@H]32)C1` [β-MET, 3-β-methyl-5-β-androstan-17-one]?
A: behavioral or external physical differences from controls [12, 18]: no obvious behavioral or external physical differences from controls; hypertrophic lymph nodes, diarrhea, bloody stools, or loss of hair luster [12, 18]: not seen; postmortem studies [12, 18]: no gross abnormalities or visible pathological changes; survival and health [12, 18]: all experimental mice were alive and apparently healthy; harm by short-term treatment with relatively large doses ([12]; approximately 20x the effective anti-obesity dose in mice): appears not to be harmful to mice; examination of visible membranes ([12]; mouse, in vivo, po, 200 mg/kg): no abnormal findings; mutagenicity [13]: not mutagenic; estrogenic activity ([5]; mouse, in vivo): does not exhibit similar estrogenic activity; food intake versus control ([14]; female, 14 weeks (FIG. 6)): not significantly different; effect on appetite ([14]; male and female (FIG. 6)): without suppressing appetite; cumulative food consumption versus control ([14]; male, 14 weeks (FIG. 6)): not significantly different; mean weight after 14 weeks ([15]; female, control female 26.1 g): 21.8 g; significance of difference in mean weights versus control ([15]; female): a significant difference in mean weights was observed after the third week of treatment; inhibition of weight gain ([15]; male and female C57-WH mice, 14 weeks (FIG. 5)): significantly inhibits weight gain; mean weight after 14 weeks ([15]; male, control male 24.8 g): 20.7 g; significance of difference in mean weights versus control ([15]; male): statistically significant after the sixth week of treatment; survival ([16]; 200 mg p.o. per ~15 g mouse, five male and five female): All of the animals survived; LD50 ([16]; mouse, in vivo, po, mice, p.o. in sesame oil): > 10000 mg/kg; inhibition of obesity in comparison to 3β-HET ([17]; comparison to 3β-HET): much more effective inhibitor of obesity; antiobesity efficacy and safety ([17]; various mammalian systems): safe and effective antiobesity agent
